Key:
[1] = molecular target: CDK5/p25 (Homo sapiens, UniProt Q00535); assay: CDK5/p25 kinase assay (Nanosyn, Caliper microfluidic); assay type: biochemical; conditions: 12-point dose-response, ATP 20 μM (Km), 3 hr; read-out: Inhibition of CDK kinases: Cdk5/p25
Procedure: (§1) Selected compounds disclosed herein were tested in CDK4/cyclinD1, CDK6/CycD3, CDK2/CycA, CDK2/cyclinE, CDK5/p25, CDK5/p35, CDK7/CycH/MAT1, and CDK9/CycT kinase assays by Nanosyn (Santa Clara, Calif.) to determine their inhibitory effect on these CDKs. The assays were performed using microfluidic kinase detection technology (Caliper Assay Platform). The compounds were tested in 12-point dose-response format in singlicate at Km for ATP. Phosphoacceptor substrate peptide concentration used was 1.25 μM for all assays (except […] was used for the CKD7/CycH/MAT1 assay and Staurosporine was used as the reference compound for all assays. Specifics of each assay are as described below:
CDK5/p25: Enzyme concentration: 0.1 nM; ATP concentration: 20 μM; Incubation time: 3 hr.

[2] = molecular target: CDK2/CyclinA (Homo sapiens, UniProt P24941); assay: CDK2/CycA kinase assay (Nanosyn, Caliper microfluidic); assay type: biochemical; conditions: 12-point dose-response, ATP 50 μM (Km), 3 hr; read-out: Inhibition of CDK kinases: Cdk2/CycA
Procedure: as §1
CDK2/CyclinA: Enzyme concentration: 0.2 nM; ATP concentration: 50 μM; Incubation time: 3 hr.

[3] = molecular target: CDK6/CyclinD3 (Homo sapiens, UniProt Q00534); assay: CDK6/CycD3 kinase assay (Nanosyn, Caliper microfluidic); assay type: biochemical; conditions: 12-point dose-response, ATP 300 μM (Km), 3 hr; read-out: Inhibition of CDK kinases: Cdk6/CycD3
Procedure: as §1
CDK6/CyclinD3: Enzyme concentration: 10 nM; ATP concentration: 300 μM; Incubation time: 3 hr.

[4] = molecular target: CDK2/CyclinE (Homo sapiens, UniProt P24941); assay: CDK2/cyclinE kinase assay (Nanosyn, Caliper microfluidic); assay type: biochemical; conditions: read-out: Inhibition of CDK kinases: Cdk2/CycE
Procedure: as §1
CDK2/CyclinE: Enzyme concentration: 0.2 nM; ATP concentration: 100 μM; Incubation time: 3 hr.

[5] = molecular target: CDK4/CyclinD1 (Homo sapiens, UniProt P11802); assay: CDK4/cyclinD1 kinase assay (Nanosyn, Caliper microfluidic); assay type: biochemical; conditions: 12-point dose-response, ATP 200 μM (Km), 3 hr; read-out: Inhibition of CDK kinases: Cdk4/CycD1
Procedure: as §1
CDK4/CyclinD1: Enzyme concentration: 1 nM; ATP concentration: 200 μM; Incubation time: 3 hr.

[6] = molecular target: CDK9/CycT (Homo sapiens, UniProt P50750); assay: CDK9/CycT kinase assay (Nanosyn, Caliper microfluidic); assay type: biochemical; conditions: read-out: Inhibition of CDK kinases: Cdk9/Cyc T
Procedure: as §1
CDK9/CycT: Enzyme concentration: 5 nM; ATP concentration: 10 μM; Incubation time: 17 hr.

[7] = molecular target: CDK7/CycH/MAT1 (Homo sapiens, UniProt P50613); assay: CDK7/CycH/MAT1 kinase assay (Nanosyn, Caliper microfluidic); assay type: biochemical; conditions: 12-point dose-response, ATP 50 μM (Km), 3 hr; read-out: Inhibition of CDK kinases: Cdk7/CycH/MAT1
Procedure: as §1
CDK7/CycH/MAT1: Enzyme concentration: 5 nM; ATP concentration: 50 μM; Incubation time: 3 hr.

[8] = molecular target: CDK5/p35 (Homo sapiens, UniProt Q00535); assay: CDK5/p35 kinase assay (Nanosyn, Caliper microfluidic); assay type: biochemical; conditions: 12-point dose-response, ATP 20 μM (Km), 3 hr; read-out: Inhibition of CDK kinases: Cdk5/p35
Procedure: as §1
CDK5/p35: Enzyme concentration: 0.07 nM; ATP concentration: 20 μM; Incubation time: 3 hr.

[9] = system: CDK4/6-dependent cell lines; conditions: cited from earlier work
[10] = Grade 3/4 neutropenia and leukopenia, clinical trial; cited from earlier work

Sequence of CDK5/p35 (Q00535 whole entry, species assumed): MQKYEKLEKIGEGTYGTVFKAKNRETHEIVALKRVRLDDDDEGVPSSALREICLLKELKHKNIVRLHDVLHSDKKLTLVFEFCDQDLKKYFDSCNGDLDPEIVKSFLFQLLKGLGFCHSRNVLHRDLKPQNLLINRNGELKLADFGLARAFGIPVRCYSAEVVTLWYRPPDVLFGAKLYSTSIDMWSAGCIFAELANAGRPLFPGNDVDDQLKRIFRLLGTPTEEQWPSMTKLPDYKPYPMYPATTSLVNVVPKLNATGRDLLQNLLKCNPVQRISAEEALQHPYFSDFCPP
Sequence of CDK5/p35 (Q15078 whole entry partner, species assumed): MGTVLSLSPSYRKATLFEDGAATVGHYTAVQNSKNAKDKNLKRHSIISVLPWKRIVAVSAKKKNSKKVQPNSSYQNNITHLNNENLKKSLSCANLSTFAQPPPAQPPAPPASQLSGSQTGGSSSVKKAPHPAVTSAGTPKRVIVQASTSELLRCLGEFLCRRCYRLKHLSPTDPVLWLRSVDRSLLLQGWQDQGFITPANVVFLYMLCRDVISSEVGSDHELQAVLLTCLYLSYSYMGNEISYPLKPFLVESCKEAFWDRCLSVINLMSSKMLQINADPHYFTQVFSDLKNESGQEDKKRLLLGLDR
Sequence of CDK5/p25 (Q00535 whole entry, species assumed): as the sequence (Q00535 whole entry, species assumed) above
Sequence of CDK5/p25 (Q15078 99-307 partner limits assumed, species assumed): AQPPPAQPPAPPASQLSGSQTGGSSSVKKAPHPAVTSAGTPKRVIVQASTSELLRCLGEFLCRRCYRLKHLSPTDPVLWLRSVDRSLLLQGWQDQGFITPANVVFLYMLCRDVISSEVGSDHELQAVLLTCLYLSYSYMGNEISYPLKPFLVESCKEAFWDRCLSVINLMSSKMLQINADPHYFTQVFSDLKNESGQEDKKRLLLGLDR
Sequence of CDK6/CyclinD3 (Q00534 whole entry, species assumed): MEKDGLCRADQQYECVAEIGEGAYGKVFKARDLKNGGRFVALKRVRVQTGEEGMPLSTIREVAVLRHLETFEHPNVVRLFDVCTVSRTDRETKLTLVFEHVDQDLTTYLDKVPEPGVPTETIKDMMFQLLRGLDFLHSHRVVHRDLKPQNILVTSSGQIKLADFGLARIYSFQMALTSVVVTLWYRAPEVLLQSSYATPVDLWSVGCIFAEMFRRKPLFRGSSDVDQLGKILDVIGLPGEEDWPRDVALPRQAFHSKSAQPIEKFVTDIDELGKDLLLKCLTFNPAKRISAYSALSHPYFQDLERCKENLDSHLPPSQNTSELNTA
Sequence of CDK6/CyclinD3 (P30281 whole entry partner, species assumed): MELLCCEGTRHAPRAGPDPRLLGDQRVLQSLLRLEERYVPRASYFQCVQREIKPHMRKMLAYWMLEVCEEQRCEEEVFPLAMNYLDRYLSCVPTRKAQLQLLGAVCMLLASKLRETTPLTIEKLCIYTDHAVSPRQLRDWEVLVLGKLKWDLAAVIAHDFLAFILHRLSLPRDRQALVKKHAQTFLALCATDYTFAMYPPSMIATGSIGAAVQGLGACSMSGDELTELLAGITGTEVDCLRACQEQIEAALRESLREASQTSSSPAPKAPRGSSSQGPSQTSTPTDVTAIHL
Sequence of CDK4/CyclinD1 (P11802 whole entry, species assumed): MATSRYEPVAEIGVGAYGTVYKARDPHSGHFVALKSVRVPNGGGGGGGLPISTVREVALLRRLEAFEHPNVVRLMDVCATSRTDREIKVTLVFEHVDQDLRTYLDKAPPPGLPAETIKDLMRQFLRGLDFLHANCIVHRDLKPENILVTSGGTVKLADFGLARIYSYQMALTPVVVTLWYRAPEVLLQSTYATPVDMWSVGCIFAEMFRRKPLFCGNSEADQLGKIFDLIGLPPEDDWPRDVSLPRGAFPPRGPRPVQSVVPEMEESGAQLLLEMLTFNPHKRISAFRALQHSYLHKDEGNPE
Sequence of CDK4/CyclinD1 (P24385 whole entry partner, species assumed): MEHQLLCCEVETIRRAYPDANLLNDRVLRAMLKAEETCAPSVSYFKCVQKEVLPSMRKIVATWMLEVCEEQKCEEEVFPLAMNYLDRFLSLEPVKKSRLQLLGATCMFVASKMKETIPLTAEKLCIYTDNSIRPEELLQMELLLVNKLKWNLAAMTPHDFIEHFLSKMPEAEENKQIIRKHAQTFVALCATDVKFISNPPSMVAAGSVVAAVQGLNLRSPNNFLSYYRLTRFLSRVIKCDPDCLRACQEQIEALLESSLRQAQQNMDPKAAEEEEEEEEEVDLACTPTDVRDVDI
Sequence of CDK7/CycH/MAT1 (P50613 whole entry, species assumed): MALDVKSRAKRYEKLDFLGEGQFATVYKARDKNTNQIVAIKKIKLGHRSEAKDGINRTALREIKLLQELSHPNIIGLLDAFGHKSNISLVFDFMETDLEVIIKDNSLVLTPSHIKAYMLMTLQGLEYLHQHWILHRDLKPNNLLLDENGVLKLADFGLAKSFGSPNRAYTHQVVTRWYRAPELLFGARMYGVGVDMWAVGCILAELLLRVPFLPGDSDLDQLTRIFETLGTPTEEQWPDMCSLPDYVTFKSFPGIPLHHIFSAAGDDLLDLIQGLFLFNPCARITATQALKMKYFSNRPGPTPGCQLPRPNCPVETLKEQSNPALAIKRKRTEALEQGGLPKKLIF
Sequence of CDK7/CycH/MAT1 (P51946 whole entry partner, species assumed): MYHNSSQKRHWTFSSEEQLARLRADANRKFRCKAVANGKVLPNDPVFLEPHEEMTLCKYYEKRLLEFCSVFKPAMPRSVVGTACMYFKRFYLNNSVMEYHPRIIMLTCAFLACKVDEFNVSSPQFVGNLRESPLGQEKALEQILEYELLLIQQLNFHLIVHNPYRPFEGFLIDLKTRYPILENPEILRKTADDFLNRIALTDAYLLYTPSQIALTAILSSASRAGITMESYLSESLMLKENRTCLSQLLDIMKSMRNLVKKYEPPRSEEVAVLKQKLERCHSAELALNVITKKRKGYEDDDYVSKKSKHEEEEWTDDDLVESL
Sequence of CDK7/CycH/MAT1 (P51948 whole entry partner, species assumed): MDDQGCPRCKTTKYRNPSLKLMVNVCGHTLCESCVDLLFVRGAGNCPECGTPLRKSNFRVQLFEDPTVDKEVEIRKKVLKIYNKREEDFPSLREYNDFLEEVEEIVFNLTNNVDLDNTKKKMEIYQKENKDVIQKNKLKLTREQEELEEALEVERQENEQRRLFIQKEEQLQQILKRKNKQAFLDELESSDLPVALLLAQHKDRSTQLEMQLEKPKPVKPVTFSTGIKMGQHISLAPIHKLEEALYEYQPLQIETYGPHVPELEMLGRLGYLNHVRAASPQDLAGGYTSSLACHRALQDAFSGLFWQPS
Sequence of CDK9/CycT (P50750 whole entry, species assumed): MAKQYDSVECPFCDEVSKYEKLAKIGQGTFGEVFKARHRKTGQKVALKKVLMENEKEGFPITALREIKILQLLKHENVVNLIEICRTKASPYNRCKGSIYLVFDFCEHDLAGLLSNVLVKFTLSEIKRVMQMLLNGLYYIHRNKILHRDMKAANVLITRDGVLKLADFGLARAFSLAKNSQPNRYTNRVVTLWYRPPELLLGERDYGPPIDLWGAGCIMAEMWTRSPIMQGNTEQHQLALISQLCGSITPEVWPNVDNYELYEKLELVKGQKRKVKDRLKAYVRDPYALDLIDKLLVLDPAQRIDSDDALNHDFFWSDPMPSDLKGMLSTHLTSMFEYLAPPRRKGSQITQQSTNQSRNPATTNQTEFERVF
Sequence of CDK9/CycT (O60563 whole entry partner, species assumed): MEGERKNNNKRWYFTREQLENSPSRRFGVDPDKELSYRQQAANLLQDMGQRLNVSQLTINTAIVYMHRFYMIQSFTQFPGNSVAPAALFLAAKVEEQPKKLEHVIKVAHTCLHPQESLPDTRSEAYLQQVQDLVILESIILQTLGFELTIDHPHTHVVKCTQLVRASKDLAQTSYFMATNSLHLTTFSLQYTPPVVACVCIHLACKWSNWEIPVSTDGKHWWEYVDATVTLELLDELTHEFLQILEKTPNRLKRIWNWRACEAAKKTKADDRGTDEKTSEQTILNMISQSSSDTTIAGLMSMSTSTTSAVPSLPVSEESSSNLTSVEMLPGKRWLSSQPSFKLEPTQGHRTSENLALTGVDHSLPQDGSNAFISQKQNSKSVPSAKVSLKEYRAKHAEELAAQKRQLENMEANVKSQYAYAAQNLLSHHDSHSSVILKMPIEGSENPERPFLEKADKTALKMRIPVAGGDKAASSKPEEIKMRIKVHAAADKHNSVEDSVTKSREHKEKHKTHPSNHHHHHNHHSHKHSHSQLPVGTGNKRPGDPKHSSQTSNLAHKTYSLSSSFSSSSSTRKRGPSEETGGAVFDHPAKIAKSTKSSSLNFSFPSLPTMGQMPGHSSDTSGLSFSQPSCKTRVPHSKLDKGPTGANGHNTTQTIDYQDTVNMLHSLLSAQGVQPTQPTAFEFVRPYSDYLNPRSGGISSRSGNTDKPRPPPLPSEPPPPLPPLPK

| SMILES | IC50 [1] | IC50 [2] | IC50 [3] | IC50 [4] | IC50 [5] | IC50 [6] | IC50 [7] | IC50 [8] | IR protective characteristics [9] | patients requiring a dose interruption [10] | patients requiring a dose reduction [10] |
| --- | --- | --- | --- | --- | --- | --- | --- | --- | --- | --- | --- |
| CN1CCN(c2ccc(Nc3ncc4c(n3)N3C(CC4=O)C(=O)NCC34CCCCC4)nc2)CC1 (centres unmarked) [AAAA] | > 100 µM | > 100 µM | > 100 µM | > 100 µM | > 100 µM | > 100 µM | > 100 µM | > 100 µM |  |  |  |
| CN1CCN(c2ccc(Nc3ncc4c(n3)N3C(CC4)C(=O)NCC34CCCCC4)nc2)CC1 (centres unmarked) [BBBB] | > 100 µM | 10 to 100 µM | 10 to 100 µM | > 100 µM | 10 to 100 µM | > 100 µM | > 100 µM | > 100 µM |  |  |  |
| CN1CCN(c2ccc(Nc3ncc4c(n3)N3C(CC4=O)C(=O)NCC34CCCC4)nc2)CC1 (centres unmarked) [CCCC] | > 100 µM | > 100 µM | > 100 µM | > 100 µM | > 100 µM | > 100 µM | > 100 µM | > 100 µM |  |  |  |
| O=C1NC(=O)c2c1c1c3ccccc3[nH]c1c1[nH]c3cc(Br)ccc3c21 [Compound 2BrIC, 2-bromo-12,13-dihydro-5H-indolo[2,3-a]pyrrolo[3,4]carbazole-5,6-dione] |  |  |  |  |  |  |  |  | exhibited IR protective characteristics |  |  |
| CN1CCN(c2ccc(Nc3ncc4c(n3)N3CCNC(=O)C3CC4=O)nc2)CC1 (centres unmarked) [GGGG] | > 100 µM | > 100 µM | 10 to 100 µM | > 100 µM | 10 to 100 µM | > 100 µM | > 100 µM | > 100 µM |  |  |  |
| CC(=O)c1c(C)c2cnc(Nc3ccc(N4CCNCC4)cn3)nc2n(C2CCCC2)c1=O [PD0332991, 6-acetyl-8-cyclopentyl-5-methyl-2-(5-piperazin-1-yl-pyridin-2-ylammino)-8H-pyrido-[2,3-d]-pyrimidin-7-one] |  |  |  |  |  |  |  |  | exhibited IR protective characteristics | 71% | 35% |
| CN1CCN(c2ccc(Nc3ncc4c(n3)N3C(CC4=O)C(=O)NCC3(C)C)nc2)CC1 (centres unmarked) [YYY] | > 100 µM | > 100 µM | 10 to 100 µM | > 100 µM | < 10 µM | > 100 µM |  | > 100 µM |  |  |  |
| CN1CCN(c2ccc(Nc3ncc4c(n3)N3C(CC4)C(=O)NCC3(C)C)nc2)CC1 (centres unmarked) [ZZZ] | > 100 µM | > 100 µM | > 100 µM | > 100 µM | > 100 µM | > 100 µM |  | > 100 µM |  |  |  |

— US20150297606A1, “Tricyclic Lactams for Use in the Protection of Hematopoietic Stem and Progenitor Cells Against Ionizing Radiation” (G1 THERAPEUTICS, INC., priority 2014, published 2015)
